Results reported in PubChem BioAssay (NCI).
Several values for one entry are separate records, joined by “and”; a condition that tells them apart may be missing. Equal values may be shown once.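 Results reflect a 48-hour exposure of cells in 96-well plates to compound at five concentrations. GI50 = concentration required for 50% inhibition of growth. Definition used: TGI = concentration required for complete inhibition of growth.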

Tests used:
Assay in all cases: NCI tumour cell line growth inhibition, 48 h
OVCAR-3 ovarian = tested on: OVCAR-3 ovarian
NCI-H460 lung = tested on: NCI-H460 lung
KM12 colon = tested on: KM12 colon
HOP-92 NSCLC = tested on: HOP-92 NSCLC
COLO 205 colon = tested on: COLO 205 colon
HCT-116 colon = tested on: HCT-116 colon
HL-60(TB) leukemia = tested on: HL-60(TB) leukemia
RPMI-8226 leukemia = tested on: RPMI-8226 leukemia
HOP-62 NSCLC = tested on: HOP-62 NSCLC

| Compound | TGI (OVCAR-3 ovarian) | TGI (NCI-H460 lung) | TGI (KM12 colon) | TGI (HOP-92 NSCLC) | TGI (COLO 205 colon) | TGI (HCT-116 colon) | TGI (HL-60(TB) leukemia) | TGI (RPMI-8226 leukemia) | TGI (HOP-62 NSCLC) | GI50 (OVCAR-3 ovarian) | GI50 (KM12 colon) | GI50 (HOP-92 NSCLC) | GI50 (HL-60(TB) leukemia) | GI50 (NCI-H460 lung) | GI50 (COLO 205 colon) | GI50 (HCT-116 colon) | GI50 (RPMI-8226 leukemia) | GI50 (HOP-62 NSCLC) |
| --- | --- | --- | --- | --- | --- | --- | --- | --- | --- | --- | --- | --- | --- | --- | --- | --- | --- | --- |
| CC1(C)C2C/C(=C\c3ccccc3)C(=O)C1C2 (stereo not drawn) | > 100 µM | > 100 µM | > 100 µM | > 100 µM | > 100 µM | > 100 µM | > 100 µM | > 100 µM | > 100 µM |  |  |  |  |  |  |  |  |  |
| C/C(=C\CC[C@]1(C)OC(C)(C)OC1CC/C(C)=C/CO[Si](c1ccccc1)(c1ccccc1)C(C)(C)C)CC/C=C/CO[Si](C)(C)C(C)(C)C (stereo partly drawn) | > 100 µM | > 100 µM | > 100 µM | > 100 µM |  | > 100 µM | > 100 µM | > 100 µM | > 100 µM |  |  |  |  |  |  |  |  |  |
| CC12CC3CC(C1)CC(N=[N+]=[N-])(C3)C2 | > 100 µM | > 100 µM | > 100 µM | > 100 µM | > 100 µM | > 100 µM |  | > 100 µM | > 100 µM |  |  |  |  |  |  |  |  |  |
| Cn1c(=O)c(C(=O)NC(=O)OCc2ccccc2)cn(CCSCCOC(=O)NCCCCCCNC(=O)OCCSCCn2cc(C(=O)NC(=O)OCc3ccccc3)c(=O)n(C)c2=O)c1=O |  | > 100 µM |  | 87.5 µM | > 100 µM | > 100 µM | > 100 µM | > 100 µM | > 100 µM |  |  |  |  |  |  |  |  |  |
| N#C[S-].[Au+].c1ccc(CN2[CH-]N(Cc3ccccc3)C(c3ccccc3)=C2c2ccccc2)cc1 | 1.3 µM |  | 2.79 µM | 1 µM |  |  | 2.34 µM |  |  | 0.351 µM | 0.527 µM | 0.292 µM | 0.414 µM |  |  |  |  |  |
| N#CC1=C(N)Oc2c(sc3c(F)cccc23)C1c1ccc(F)cc1 (stereo not drawn) | 1.88 µM | 7.77 µM | 12.8 µM | 13.4 µM | 13.2 µM | 13 µM | 2.74 µM | 14.7 µM | 19.2 µM | 0.363 µM | 0.465 µM | 2.36 µM | 0.284 µM | 0.415 µM | 2.83 µM | 0.492 µM | 1.05 µM | 0.76 µM |
| O=C1C[C@@H]2CCCC[C@@H]2C12SCCS2 | > 100 µM | > 100 µM | > 100 µM |  | > 100 µM | > 100 µM | > 100 µM | > 100 µM | > 100 µM |  |  |  |  |  |  |  |  |  |
| C/C=C/C=C\C1OC(O)([C@H](CC)C(=O)NC/C=C/C=C(\C)[C@H](OC)C(C)C2OC(\C=C/C=C/C=C(\C)C(=O)c3c(O)ccn(C)c3=O)[C@H](O)[C@@H]2O)C(O)C(O)C1(C)C (stereo partly drawn) | > 100 µM | > 100 µM | > 100 µM | > 100 µM | > 100 µM | > 100 µM | > 100 µM | > 100 µM | > 100 µM |  |  |  |  |  |  |  |  |  |
| Cc1ccc(/C=C2\CCCC\C2=N\O)cc1 | > 100 µM | > 100 µM |  |  | > 100 µM | > 100 µM | 30.7 µM |  | > 100 µM |  |  |  |  |  |  |  |  |  |
| COc1ccc2nc(C)cc(Nc3ccccc3O)c2c1 | > 100 µM | 54.4 µM | > 100 µM | 61.2 µM | 36.5 µM | 82 µM | 48 µM | 51.4 µM | > 100 µM | 37.2 µM | 35.9 µM | 10.9 µM | 21 µM | 19.4 µM | 18.3 µM | 15 µM | 17.2 µM | 49.3 µM |
| COc1cc2cccc(NC(=O)c3cc(OC)c(OC)c(OC)c3Br)c2cc1OC | 47.5 µM | 36.5 µM | 27.5 µM |  | 26.6 µM | 36.6 µM |  | 17 µM | 42.3 µM |  |  |  |  |  |  |  |  |  |
| CC1=C(C(=O)Nc2ccc(F)c(Cl)c2)C(c2cccc(Oc3ccccc3)c2)NC(=O)N1 (stereo not drawn) | 57.3 µM | 38.4 µM | 34.3 µM | 24.9 µM | 29.6 µM | 24.6 µM | 24.7 µM | 26.3 µM | 29.2 µM | 20.7 µM | 14.9 µM | 12 µM | 8.07 µM | 15.7 µM | 14.2 µM | 12.2 µM | 8.51 µM | 15.4 µM |
| Clc1ccc(SCCCCCCCCCCSc2ccc(Cl)cc2)cc1 | > 70.7 µM | > 78.7 µM | > 70.4 µM | > 100 µM | > 100 µM | > 100 µM | > 100 µM | > 100 µM | > 100 µM |  |  |  |  |  |  |  |  |  |
| COc1cc([N+](=O)[O-])c(OC)cc1-c1nc2sc(Cl)cn2c1/C=N/NC(=N)N/N=C/c1c(-c2cc(OC)c([N+](=O)[O-])cc2OC)nc2sc(Cl)cn12 |  | 7.13 µM | 2.95 µM |  | 4.08 µM | 3.15 µM |  |  |  |  | 1.54 µM |  |  | 2.57 µM | 1.89 µM | 1.76 µM |  |  |
| C/C(=N\O)C(CN1CCCCC1)C(c1ccccc1)c1c(O)c2ccccc2oc1=O (stereo not drawn) | > 100 µM |  |  | > 100 µM | > 100 µM | > 100 µM | > 10 µM | > 100 µM | > 100 µM |  |  |  |  |  |  |  |  |  |
| C=C(C)[C@H](O)C(O)CC(C)[C@@H]1CCC23CC12CCC1[C@@]2(C)CCC(OC(C)=O)C(C)(C)C2CC(OC2OC(COC(C)=O)C(O)C(O)C2O)[C@]13C (stereo partly drawn) | 11.6 µM | 11.5 µM | 11.3 µM | 11 µM | 12.6 µM | 9.27 µM | 5.08 µM | 6.29 µM | 13.2 µM |  |  |  |  |  |  |  |  |  |
| COc1cc(C(=O)CC2(O)C(=O)Nc3c(Cl)cc(Cl)cc32)ccc1O (stereo not drawn) | > 100 µM | > 100 µM | > 100 µM | > 100 µM | 83.5 µM |  | > 100 µM | > 100 µM | > 100 µM |  |  |  |  |  |  |  |  |  |
| O=C1/C(=C/c2ccc(Cl)cc2)COc2ccc(O)c(O)c21 | 1.48 µM | 3.89 µM | 3.31 µM | 8.77 µM | 3.31 µM |  | 0.827 µM | 0.512 µM |  | 0.404 µM | 1.36 µM | 2.01 µM | 0.28 µM | 1.78 µM | 1.79 µM |  | 0.2 µM |  |
| O=C(/C=C1/NC(=O)CS1)Nc1ccccc1 | > 100 µM | > 100 µM | > 100 µM | > 100 µM | > 100 µM | > 100 µM | > 100 µM | > 100 µM | > 100 µM |  |  |  |  |  |  |  |  |  |
| CC(C)C[C@@H]1NC(=O)[C@@H]2CCCN2C(=O)[C@@H]2CCCN2C(=O)[C@H](CC(C)C)NC(=O)[C@H](CO)NC(=O)[C@H](CCCCN)NC(=O)[C@H]([C@H](C)O)NC(=O)[C@@H]2CCCC[C@@H](NC1=O)C(=O)N[C@@H](Cc1ccccc1)C(=O)N1CCC[C@H]1C(=O)N[C@@H](CC(=O)O)C(=O)NCC(=O)N[C@@H](CCCN=C(N)N)C(=O)N2 | > 50 µM | > 50 µM | > 50 µM | > 50 µM | > 50 µM | > 50 µM |  | > 50 µM | > 50 µM | > 50 µM | > 50 µM | > 50 µM |  | > 50 µM | > 50 µM | > 50 µM | > 50 µM | > 50 µM |
| CCCCCN(CCCCC)CC(O)c1cc2c(c3ccccc13)CCCC2 (stereo not drawn) | 18.7 µM and 24.1 µM | 13.8 µM and 16.1 µM | 12.3 µM and 21.5 µM | 8.94 µM and 17.1 µM | 13.8 µM and 80.5 µM | 12.8 µM and 13.1 µM |  | 7.39 µM and 9.18 µM | 12.9 µM and 25.7 µM | 6.22 µM and 10.5 µM | 3.34 µM and 6.95 µM | 2.5 µM and 3.53 µM | 2.53 µM and 7.51 µM | 3.4 µM and 4.36 µM | 3.4 µM and 13.7 µM | 2.7 µM and 2.24 µM | 2.41 µM and 1.5 µM | 3.62 µM and 12.1 µM |
| C[C@@H]1C[C@@]2(O[C@@H]2C)C(=O)O[C@@H]2CCN3CC=C(COC(=O)[C@]1(C)O)[C@H]23 | > 100 µM | > 100 µM | > 100 µM | > 100 µM | > 100 µM | > 100 µM | > 100 µM | > 100 µM |  |  |  |  |  |  |  |  |  |  |
| COc1ccc2c(c1)CC1c3c(cc4c(c3-2)OCO4)CCN1C (stereo not drawn) | 88.4 µM | 60.4 µM | > 100 µM | 57 µM | 30.9 µM | 70.6 µM |  | 64.2 µM | 96.7 µM |  |  |  |  |  |  |  |  |  |
| COc1cc([C@@H]2OC(=O)C3C2C(=O)O[C@H]3c2cc(OC)c(OC)c(OC)c2)cc(OC)c1OC (stereo partly drawn) | > 100 µM | > 100 µM | > 100 µM | > 100 µM | > 100 µM | > 100 µM | > 100 µM | > 100 µM | > 100 µM |  |  |  |  |  |  |  |  |  |
| O=C1CCCC1NC(=O)C(F)(F)F (stereo not drawn) | > 100 µM | > 100 µM | > 100 µM | > 100 µM |  | > 100 µM | > 100 µM |  | > 100 µM |  |  |  |  |  |  |  |  |  |
| CC1/C(=N/Nc2ccc([N+](=O)[O-])cc2)CC2C3(C)CCC2(C(C)C(=O)O)C(=O)C13 (stereo not drawn) | > 100 µM | > 100 µM | > 100 µM | > 100 µM | > 100 µM | > 100 µM |  | 24 µM | > 100 µM | 1.72 µM | 11.3 µM | 23.6 µM |  | 5.88 µM | 9 µM | 6.97 µM | 2.95 µM | 95 µM |
| CC1=NN(C(=O)c2ccc(Cl)cc2)C(=O)/C1=C/c1ccc(O)cc1 | > 100 µM | > 100 µM | > 100 µM | > 100 µM | > 100 µM | > 100 µM | > 100 µM | > 100 µM | > 100 µM |  |  |  |  |  |  |  |  |  |
